Reference: ChEMBL document CHEMBL1201862, “PubChem BioAssay data set” (2004)
Activity calls are given as the source filed them.

How the values were obtained:
[1] = target: Sphingosine 1-phosphate receptor 1 (Homo sapiens, UniProt P21453); experiment: Fluorescence-based counterscreen assay for S1P4 agonists: Cell-based dose response high throughput screening assay to identify agonists of the Sphingosine 1-Phosphate Receptor 1 (S1P1). [Related pubchem assays (depositor defined):AID1509, AID1523, AID1801, AID463107, AID463118, AID463119, AID463122, AID463123, AID463129, AID463225, AID504400, AID504460]; assay type: functional
Chain of Sphingosine 1-phosphate receptor 1 (P21453 whole entry): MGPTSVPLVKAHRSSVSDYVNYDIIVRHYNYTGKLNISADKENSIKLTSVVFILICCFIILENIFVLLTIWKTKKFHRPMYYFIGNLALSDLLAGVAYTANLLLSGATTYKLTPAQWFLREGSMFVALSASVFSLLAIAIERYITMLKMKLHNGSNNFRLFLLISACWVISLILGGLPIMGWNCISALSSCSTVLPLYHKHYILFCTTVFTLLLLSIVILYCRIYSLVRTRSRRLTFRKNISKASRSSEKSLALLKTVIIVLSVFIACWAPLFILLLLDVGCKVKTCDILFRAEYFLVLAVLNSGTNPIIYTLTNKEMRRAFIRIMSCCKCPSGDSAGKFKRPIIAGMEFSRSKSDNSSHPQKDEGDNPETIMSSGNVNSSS

[2] = target: T1, Sphingosine 1-phosphate receptor 4 (Homo sapiens, UniProt O95977); experiment: Fluorescence dose response cell-based high throughput screening assay for agonists of the Sphingosine 1-Phosphate Receptor 4 (S1P4). [Related pubchem assays: 1509 (Primary screen.), 1523 (Confirmation screen in triplicates.)]; assay type: functional
T1 sequence (O95977 whole entry): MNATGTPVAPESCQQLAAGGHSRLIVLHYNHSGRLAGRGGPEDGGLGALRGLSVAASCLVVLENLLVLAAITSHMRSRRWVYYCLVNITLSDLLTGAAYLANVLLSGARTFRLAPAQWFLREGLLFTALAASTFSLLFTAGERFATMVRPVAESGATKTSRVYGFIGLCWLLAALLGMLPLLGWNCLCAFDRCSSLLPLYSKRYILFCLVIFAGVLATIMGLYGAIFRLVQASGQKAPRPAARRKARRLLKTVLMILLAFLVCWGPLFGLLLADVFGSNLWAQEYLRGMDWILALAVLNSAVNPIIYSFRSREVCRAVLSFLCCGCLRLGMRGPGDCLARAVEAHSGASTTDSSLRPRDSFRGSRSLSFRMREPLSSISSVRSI

[3] = growth suppression of PTEN-null colon cells, dose response, cell-based, HCT116 PTEN knockout (AID 1047); assay type: functional;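 also: HCT116 colon tumor cells with PTEN knocked out; cells exposed to compound for 60 hours before readout; potency for loss of cell viability measured by luminescence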
[4] = growth suppression of beta-catenin-knockout colon cells, dose response, cell-based, HCT116, human colon tumor (AID 1045); assay type: functional;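 also: HCT116 colon tumor cells with beta catenin knocked out; cells exposed to compound for 60 hours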
[5] = cytotoxicity in HEK-293T cells, dose response, cytotoxicity control for TCR NF-kB inhibitor project, luminescence, T-cell screen hits (AID 489026); assay type: functional, cell-based;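 also: cells exposed to compound about 14 hours before the viability readout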
Protein Wnt-3a = Protein Wnt-3a (Mus musculus, UniProt P27467); experiment: Wnt3a-driven reporter signaling inhibition, dose response, selectivity assay for Gli-SUFU antagonist project, Wnt-LIGHT cells, luminescence (AID 651570); assay type: functional; conditions: read-out: IC50_Mean;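 also: Wnt-LIGHT reporter cells stimulated with conditioned medium from Wnt3a-producing cells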
Chain of Protein Wnt-3a (P27467 whole entry): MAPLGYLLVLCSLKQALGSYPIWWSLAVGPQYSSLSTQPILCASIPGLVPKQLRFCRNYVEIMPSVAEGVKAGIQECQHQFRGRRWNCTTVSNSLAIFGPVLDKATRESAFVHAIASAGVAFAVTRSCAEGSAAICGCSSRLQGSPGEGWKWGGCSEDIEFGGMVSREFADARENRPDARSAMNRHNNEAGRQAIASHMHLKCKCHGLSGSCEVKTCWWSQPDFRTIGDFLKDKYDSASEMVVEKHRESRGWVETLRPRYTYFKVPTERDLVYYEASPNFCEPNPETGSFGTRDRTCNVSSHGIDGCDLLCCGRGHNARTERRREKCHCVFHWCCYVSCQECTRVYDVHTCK

[6] = target: T2, G-protein coupled receptor 35 (Homo sapiens, UniProt Q9HC97); experiment: SAR analysis of Agonists of the GPR35 Receptor using an Image-Based Assay - Set 4. [Related pubchem assays (depositor defined):AID2013, AID2026]; assay type: functional
T2 sequence (Q9HC97 whole entry): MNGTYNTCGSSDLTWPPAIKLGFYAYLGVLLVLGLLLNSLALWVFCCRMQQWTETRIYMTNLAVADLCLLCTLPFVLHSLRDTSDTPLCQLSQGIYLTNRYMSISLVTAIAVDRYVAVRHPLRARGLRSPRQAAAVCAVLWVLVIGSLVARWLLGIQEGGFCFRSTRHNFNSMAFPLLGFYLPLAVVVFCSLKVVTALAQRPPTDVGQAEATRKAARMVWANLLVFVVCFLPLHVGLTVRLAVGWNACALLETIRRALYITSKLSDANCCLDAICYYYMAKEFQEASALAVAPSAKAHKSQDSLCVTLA

Cannabinoid receptor 1 [7] = target: T3, Cannabinoid receptor 1 (Homo sapiens, UniProt P21554); experiment: SAR analysis of agonists of the Cannabinoid Receptor 1 using an Image-Based Assay - Set 4. [Related pubchem assays (depositor defined):AID2013, AID2026]; assay type: functional
T3 sequence (P21554 whole entry): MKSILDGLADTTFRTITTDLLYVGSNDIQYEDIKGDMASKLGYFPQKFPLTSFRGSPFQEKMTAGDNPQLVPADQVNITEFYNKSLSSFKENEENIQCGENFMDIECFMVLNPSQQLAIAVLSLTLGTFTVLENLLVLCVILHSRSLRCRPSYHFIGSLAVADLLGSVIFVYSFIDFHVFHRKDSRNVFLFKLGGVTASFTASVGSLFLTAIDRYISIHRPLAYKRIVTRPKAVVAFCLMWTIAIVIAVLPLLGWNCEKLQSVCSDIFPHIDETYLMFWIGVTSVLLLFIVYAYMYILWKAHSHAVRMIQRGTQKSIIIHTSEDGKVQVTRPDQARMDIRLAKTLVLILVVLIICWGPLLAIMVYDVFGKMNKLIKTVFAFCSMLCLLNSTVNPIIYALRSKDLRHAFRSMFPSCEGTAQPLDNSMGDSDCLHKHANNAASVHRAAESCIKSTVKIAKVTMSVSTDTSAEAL

[8] = target: T2, G-protein coupled receptor 35; experiment: SAR analysis of Antagonists of the GPR35 Receptor using an Image-Based Assay - Set 6. [Related pubchem assays (depositor defined):AID2013, AID2026]; assay type: functional
Cannabinoid receptor 1 [9] = target: T3, Cannabinoid receptor 1; experiment: SAR analysis of antagonists of the Cannabinoid Receptor 1 using an Image-Based Assay - Set 4. [Related pubchem assays (depositor defined):AID2013, AID2026]; assay type: functional
[10] = target: G-protein coupled receptor 55 (Homo sapiens, UniProt Q9Y2T6); experiment: SAR Analysis of Selective Antagonists of GPR55 using an Image-Based Assay - Set 4. [Related pubchem assays (depositor defined):AID2013, AID2026]; assay type: functional;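 also: antagonism of response to 5 µM lysophosphatidylinositol agonist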
Chain of G-protein coupled receptor 55 (Q9Y2T6 whole entry): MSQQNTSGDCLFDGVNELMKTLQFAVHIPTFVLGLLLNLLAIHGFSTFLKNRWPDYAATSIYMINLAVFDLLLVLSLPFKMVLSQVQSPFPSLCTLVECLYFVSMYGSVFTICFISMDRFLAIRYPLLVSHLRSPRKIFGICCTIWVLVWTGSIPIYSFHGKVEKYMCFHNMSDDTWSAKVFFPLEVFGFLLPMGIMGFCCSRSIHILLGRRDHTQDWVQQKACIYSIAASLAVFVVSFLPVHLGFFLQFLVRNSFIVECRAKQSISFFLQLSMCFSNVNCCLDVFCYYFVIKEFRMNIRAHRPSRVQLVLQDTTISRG

Cannabinoid receptor 2 [11] = target: T4, Cannabinoid receptor 2 (Homo sapiens, UniProt P34972); experiment: SAR analysis of antagonists of the Cannabinoid Receptor 2 using an Image-Based Assay - Set 3. [Related pubchem assays (depositor defined):AID2013, AID2026]; assay type: functional
T4 sequence (P34972 whole entry): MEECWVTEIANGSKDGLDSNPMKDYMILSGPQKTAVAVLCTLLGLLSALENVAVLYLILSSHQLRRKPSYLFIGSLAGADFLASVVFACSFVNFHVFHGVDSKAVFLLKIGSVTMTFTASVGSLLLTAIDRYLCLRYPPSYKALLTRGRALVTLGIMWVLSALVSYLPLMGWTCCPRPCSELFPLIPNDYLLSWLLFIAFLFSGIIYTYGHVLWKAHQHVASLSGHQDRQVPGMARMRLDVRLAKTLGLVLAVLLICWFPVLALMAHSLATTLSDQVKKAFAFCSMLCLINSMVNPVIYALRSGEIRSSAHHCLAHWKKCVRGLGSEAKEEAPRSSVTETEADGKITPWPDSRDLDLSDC

Cannabinoid receptor 2 [12] = target: T4, Cannabinoid receptor 2; experiment: SAR analysis of agonists of the Cannabinoid Receptor 2 using an Image-Based Assay - Set 3. [Related pubchem assays (depositor defined):AID2013, AID2026]; assay type: functional
[13] = target: Tyrosine-protein phosphatase non-receptor type 12 (Homo sapiens, UniProt Q05209); experiment: SAR Selectivity Analysis of small molecule inhibitors of PEST using pCAP in a fluorescence assay. [Related pubchem assays (depositor defined):AID1779, AID1784, AID2135]; assay type: functional
Chain of Tyrosine-protein phosphatase non-receptor type 12 (Q05209 whole entry): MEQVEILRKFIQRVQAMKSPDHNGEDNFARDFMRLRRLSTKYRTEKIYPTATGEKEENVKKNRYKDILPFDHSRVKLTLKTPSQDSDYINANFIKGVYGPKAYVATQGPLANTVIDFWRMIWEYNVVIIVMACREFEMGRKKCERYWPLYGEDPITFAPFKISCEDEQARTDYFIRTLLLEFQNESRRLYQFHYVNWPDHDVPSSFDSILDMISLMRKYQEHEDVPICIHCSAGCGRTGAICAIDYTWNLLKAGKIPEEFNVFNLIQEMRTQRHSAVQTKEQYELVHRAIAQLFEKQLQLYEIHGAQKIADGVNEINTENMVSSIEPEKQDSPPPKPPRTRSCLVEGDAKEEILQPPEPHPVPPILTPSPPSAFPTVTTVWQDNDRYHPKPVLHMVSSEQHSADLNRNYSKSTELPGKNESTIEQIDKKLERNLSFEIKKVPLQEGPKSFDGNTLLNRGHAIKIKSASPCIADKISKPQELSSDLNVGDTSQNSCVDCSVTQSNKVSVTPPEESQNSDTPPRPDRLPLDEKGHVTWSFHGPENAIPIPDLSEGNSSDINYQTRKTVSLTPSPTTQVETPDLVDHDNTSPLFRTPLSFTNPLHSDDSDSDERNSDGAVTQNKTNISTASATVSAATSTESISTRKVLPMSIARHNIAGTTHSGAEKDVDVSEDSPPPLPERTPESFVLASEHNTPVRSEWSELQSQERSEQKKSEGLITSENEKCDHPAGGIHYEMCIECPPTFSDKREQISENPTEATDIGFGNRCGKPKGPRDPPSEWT

[14] = target: T5, Tyrosine-protein phosphatase non-receptor type 22 (Homo sapiens, UniProt Q9Y2R2); experiment: SAR LYP1 Fluorescent Assay using OMFP substrate for In Vitro dose response studies - Set 3. [Related pubchem assays (depositor defined):AID1779, AID1784, AID2140, AID2686]; assay type: functional
T5 sequence (Q9Y2R2 whole entry): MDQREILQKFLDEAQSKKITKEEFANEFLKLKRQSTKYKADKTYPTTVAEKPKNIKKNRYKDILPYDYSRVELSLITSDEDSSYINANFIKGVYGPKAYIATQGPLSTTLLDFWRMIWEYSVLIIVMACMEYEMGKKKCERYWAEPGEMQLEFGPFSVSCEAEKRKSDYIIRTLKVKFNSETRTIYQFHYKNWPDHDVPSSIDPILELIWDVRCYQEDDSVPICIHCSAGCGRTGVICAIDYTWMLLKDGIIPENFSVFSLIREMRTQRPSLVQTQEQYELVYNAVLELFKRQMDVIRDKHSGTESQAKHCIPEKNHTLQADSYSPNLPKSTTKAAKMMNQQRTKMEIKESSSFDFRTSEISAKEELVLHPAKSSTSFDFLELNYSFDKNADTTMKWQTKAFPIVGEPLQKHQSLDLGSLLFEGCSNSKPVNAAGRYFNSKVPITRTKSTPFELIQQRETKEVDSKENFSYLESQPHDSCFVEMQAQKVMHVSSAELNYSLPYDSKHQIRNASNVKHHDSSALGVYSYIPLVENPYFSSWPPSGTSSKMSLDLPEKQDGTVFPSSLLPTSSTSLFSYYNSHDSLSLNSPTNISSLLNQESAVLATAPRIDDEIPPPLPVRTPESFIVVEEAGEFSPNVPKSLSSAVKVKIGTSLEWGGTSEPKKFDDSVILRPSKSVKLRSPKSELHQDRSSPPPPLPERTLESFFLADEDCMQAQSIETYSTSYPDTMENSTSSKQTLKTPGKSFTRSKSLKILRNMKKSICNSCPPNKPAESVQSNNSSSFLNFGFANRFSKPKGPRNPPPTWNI

[15] = target: T6, Tyrosine-protein phosphatase non-receptor type 7 (Homo sapiens, UniProt P35236); experiment: redox-dependent HePTP inhibition, mechanism study, biochemical, fluorescence (AID 2068); assay type: functional
T6 sequence (P35236 whole entry): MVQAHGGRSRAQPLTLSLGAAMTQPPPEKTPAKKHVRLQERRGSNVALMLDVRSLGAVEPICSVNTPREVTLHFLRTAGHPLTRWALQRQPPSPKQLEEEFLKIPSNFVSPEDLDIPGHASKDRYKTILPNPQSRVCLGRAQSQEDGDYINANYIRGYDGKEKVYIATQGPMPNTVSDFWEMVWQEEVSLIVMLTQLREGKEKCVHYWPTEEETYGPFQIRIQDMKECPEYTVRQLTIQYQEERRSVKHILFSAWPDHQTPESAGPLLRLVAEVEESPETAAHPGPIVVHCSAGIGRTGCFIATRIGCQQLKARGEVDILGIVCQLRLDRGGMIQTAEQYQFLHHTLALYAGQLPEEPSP

[16] = target: T6, Tyrosine-protein phosphatase non-receptor type 7; experiment: HePTP (PTPN7) phosphatase inhibitor potency, SAR follow-up, biochemical, set 2 (AID 449736); assay type: functional
[17] = target: T5, Tyrosine-protein phosphatase non-receptor type 22; experiment: LYP (PTPN22) phosphatase inhibitor potency, SAR follow-up, biochemical, pCAP fluorogenic substrate, fluorescence, set 3 (AID 449727); assay type: functional
[18] = target: Dual specificity protein phosphatase 3 (Homo sapiens, UniProt P51452); experiment: SAR VHR1 Fluorescent Assay for In Vitro dose response studies Set 2. [Related pubchem assays (depositor defined):AID1654, AID1661, AID1878]; assay type: functional
Chain of Dual specificity protein phosphatase 3 (P51452 whole entry): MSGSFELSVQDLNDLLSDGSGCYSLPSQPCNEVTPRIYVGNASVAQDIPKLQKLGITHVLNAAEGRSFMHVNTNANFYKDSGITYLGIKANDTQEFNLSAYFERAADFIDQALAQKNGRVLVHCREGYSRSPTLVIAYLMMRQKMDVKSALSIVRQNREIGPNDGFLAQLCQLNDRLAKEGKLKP

[19] = target: T7, Dual specificity protein phosphatase 6 (Rattus norvegicus, UniProt Q64346); assay type: functional;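 also: confirmatory in vitro dose-response testing of MKP-3 inhibition; recombinant His-tagged MKP-3 made in E. coli BL21 with OMFP substrate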
T7 sequence (Q64346 whole entry): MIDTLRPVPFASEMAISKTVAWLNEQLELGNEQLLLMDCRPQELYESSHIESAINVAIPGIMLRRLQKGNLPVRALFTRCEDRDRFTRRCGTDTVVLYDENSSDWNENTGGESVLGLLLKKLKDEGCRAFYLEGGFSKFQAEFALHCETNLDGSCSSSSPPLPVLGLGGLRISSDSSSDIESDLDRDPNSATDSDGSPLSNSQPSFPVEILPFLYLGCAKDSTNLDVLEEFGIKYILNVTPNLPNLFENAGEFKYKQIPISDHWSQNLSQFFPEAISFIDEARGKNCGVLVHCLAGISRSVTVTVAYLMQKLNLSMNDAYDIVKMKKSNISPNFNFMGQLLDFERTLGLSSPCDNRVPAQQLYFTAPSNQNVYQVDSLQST

## COc1ccc(-c2c(C#N)c(N)nc3c2CCc2ccccc2-3)cc1OC
[1]
  EC50: > 49.8 µM (inactive)
[2]
  EC50: 43.6 µM (not active)
[3]
  EC50: 5.19 µM (active)
[4]
  EC50: 5.59 µM (active)
[5]
  IC50: 38.1 µM (inactive)
Protein Wnt-3a
  IC50: 17.9 µM (active)

## CCOc1ccc(CC(=O)N2CCC(n3nc(-c4ccccc4)oc3=O)CC2)cc1
[6]
  EC50: > 32 µM (inactive)
Cannabinoid receptor 1 [7]
  EC50: > 32 µM (inactive)
[8]
  IC50: > 32 µM (inactive)
Cannabinoid receptor 1 [9]
  IC50: 7.68 µM (active)
[10]
  IC50: > 32 µM (inactive)
Cannabinoid receptor 2 [11]
  IC50: > 32 µM (inactive)
Cannabinoid receptor 2 [12]
  EC50: > 32 µM (inactive)

## COc1cc(/C=C2/S/C(=N\c3cccc(Br)c3)NC2=O)ccc1OCC(=O)O
[13]
  IC50: 7.86 µM (active)
[14]
  IC50: 68.8 µM (active)
[15]
  IC50: 7.44 µM (active)
[16]
  IC50: 1.57 µM (active)
[17]
  IC50: 32 µM (active)
[18]
  IC50: > 100 µM (inactive)
[19]
  IC50: > 100 µM (inactive)
